Laboratory results: US20020037516A1, “Assay for identification of a test compound” (priority 2000, published 2002)

Key:
mGAR = assay: Inhibition of tsr methylation activity by test compounds in 96 well plate, mGAR titration; type: biochemical; conditions: compound at 50 μM, 25° C., 30 minutes, increasing amounts of mGAR; FIG. 7
Protocol: The Ki value for a compound is determined by relating the Km in the presence and the Km in the absence of compound using the equation: […]
(§1) In an preferred format, enzyme binding and activity is measured by measuring the Michealis constant (Km) of the enzymatic reaction in the absence and presence of a constant concentration of the test compound. Increasing amounts of target RNA are incubated with the modifying enzyme and the yield of modified RNA product is measured for each point. Data from this substrate titration are fitted to a saturation curve by non-linear regression. The Michaelis constant Km is determined from the curve-fitting by routine methods.
Test compounds were assayed in a 96 well plate for inhibition of tsr methylation activity at 50 μM. Compounds were incubated at 25° C. for 30 minutes in the presence of [^3H]SAM and enzyme, and increasing amounts of mGAR were added. RNA was precipitated with 2% TFA, filtered, and scintillation counted in a Wallac Trilux instrument.

[1] = molecular target: tsr methyltransferase (thiostrepton resistance methyltransferase); assay: Inhibition of tsr methyltransferase methylation of mGAR (GTPase activating region of 23S rRNA): [3H]SAM incorporation, mGAR titration, 96-well (FIG. 7); type: biochemical, Streptomyces azureus; conditions: compounds at 50 μM, 25° C., 30 min, increasing mGAR, Ki=[I]/((Km(I)/Km)−1), tsr gene cloned, overexpressed in E. coli, read-out: TSR methyltransferase (GAR RNA methylation) Ki
Protocol: The Km for each titration is determined by fitting the data to the equation
Bmax: incorporation at RNA substrate saturation in cpm.
[RNA]: concentration of target RNA.
The Ki value for a compound is determined by relating the Km in the presence and the Km in the absence of compound using the equation:
[I]: concentration of the inhibitory compound
Km(I): Michaelis constant in the presence of inhibitor
Km: Michaelis constant in the absence of inhibitor
as §1, with “methods. […]” for “methods.”
RNA (0-2 μM) was incubated in 25 mM HEPES-KOH, pH 7.5, 25 mM NH4Cl, 5 mM MgCl2, 5 mM DTT with test compounds. […] 50 μl scintillation cocktail (Wallac Optiszint) was added to each well of the dried filter plate and incorporated [^3H]-radioactivity was determined in a Wallac Trilux scintillation counter. […]

E. coli GAR = assay: TSR methyltransferase methylation of GAR RNA with [3H]SAM, titration of inhibitor; type: biochemical; conditions: 23S (or GAR), competition with methyltransferase at A-1067; FIG. 6; read-out: affinity (binding measured by following inhibition of methylation)
Protocol: RNA (0-2 μM) was incubated in 25 mM HEPES-KOH, pH 7.5, 25 mM NH4Cl, 5 mM MgCl2, 5 mM DTT with test compounds. The methylation reaction was started by adding 8 pmol TSR methyltransferase and 1 μCi [^3H]SAM (Amersham-Pharmacia). The final assay volume was 100 μl. The reaction was incubated 15 min at 25° C. and stopped by adding 1 vol. 2% TFA. The TFA precipitate was filtered through a 96-well glassfiber filterplate (Millipore Multiscreen FB 1.0 μM Glass Fiber Type B Filter). The filters were washed with 2 vol. of 2% TFA. 50 μl scintillation cocktail (Wallac Optiszint) was added to each well of the dried filter plate and incorporated [^3H]-radioactivity was determined in a Wallac Trilux scintillation counter.
The L11 ribosomal protein is an integral part of the GAR, and its presence inhibits methyltransferase activity [Bechthold & Floss, 1994]. Various concentrations of L11 were incubated with E. coli GAR and [^3H]SAM as described above. As expected, methylation was inhibited as L11 concentration increased.
Methyltransferase and thiostrepton thus compete for binding at A-1067, and binding of thiostiepton to 23S (or GAR) can be measured by following inhibition of methylation.

rRNA = rRNA methylation by Erm E in the presence of erythromycin; type: biochemical; conditions: erythromycin 200 μM
Protocol: Erm E is inhibited by erythromycin (FIG. 21). Erythromycin inhibits enzyme activity most noticably when the RNA is folded in the presence of erythromycin (FIG. 21). One embodiment of the invention may therefore involve folding of the RNA in the presence of compound before measuring the activity of the methyltransferase on the RNA.
The reaction was performed in 50 μl 50 mM Tris/Cl, pH 7.5, 4 mM MgCl2, 40 mM KCl, 10 mM DTT, for 120 min at 37° C. with 0.04 μM rRNA and 6 μCi [3H]SAM. The erythromycin concentration was 200 μM.

NC[C@@H]1O[C@H](O[C@H]2[C@@H](O)[C@H](O[C@@H]3[C@@H](O)[C@H](N)C[C@H](N)[C@H]3O[C@H]3O[C@H](CN)[C@@H](O)[C@H](O)[C@H]3N)O[C@@H]2CO)[C@H](N)[C@@H](O)[C@@H]1O [neomycin]
inhibition of methyltransferase (methylation) (mGAR): significant inhibition

NC[C@@H]1O[C@H](O[C@H]2[C@@H](O)[C@H](O[C@@H]3[C@@H](O)[C@H](N)C[C@H](N)[C@H]3O[C@H]3O[C@H](CN)[C@@H](O)[C@H](O)[C@H]3N)O[C@@H]2CO)[C@H](N)[C@@H](O)[C@@H]1O [Neomycin, neomycin]
Ki [1]: 9 µM

C=C(NC(=O)C(=C)NC(=O)c1csc(C2=N[C@@H]3c4csc(n4)[C@H]4NC(=O)c5csc(n5)[C@H]([C@](C)(O)[C@@H](C)O)NC(=O)[C@H]5CSC(=N5)/C(=C/C)NC(=O)[C@H]([C@@H](C)O)NC(=O)c5csc(n5)[C@]3(CC2)NC(=O)[C@H](C)NC(=O)C(=C)NC(=O)[C@H](C)NC(=O)[C@H]([C@@H](C)CC)N[C@@H]2C=Cc3c([C@H](C)O)cc(nc3[C@H]2O)C(=O)O[C@@H]4C)n1)C(N)=O [thiostrepton]
Kd (E. coli GAR): 1.1 µM

CC[C@H]1OC(=O)[C@H](C)[C@@H](O[C@H]2C[C@@](C)(OC)[C@@H](O)[C@H](C)O2)[C@H](C)[C@@H](O[C@@H]2O[C@H](C)C[C@H](N(C)C)[C@H]2O)[C@](C)(O)C[C@@H](C)C(=O)[C@H](C)[C@@H](O)[C@]1(C)O [erythromycin]
refolded rRNA methylation by Erm E (rRNA; refolded rRNA 0.04 μM, 120 min at 37° C., FIG. 21): decrease
effect on rRNA methylation by Erm E (rRNA; unfolded rRNA): no effect
